The values below come from patent US8729053B2, “Nuclear factor kappa B pathway inhibitor composition and use of same” (The United States of America, as represented by the …, priority 2008, dated 2014).

Where a name gives a salt, the structure may show the parent alone.

In one test the target is T1, IKKβ (Homo sapiens, UniProt O14920).
T1 construct: purchased Calbiochem
T1 sequence (O14920 1-756): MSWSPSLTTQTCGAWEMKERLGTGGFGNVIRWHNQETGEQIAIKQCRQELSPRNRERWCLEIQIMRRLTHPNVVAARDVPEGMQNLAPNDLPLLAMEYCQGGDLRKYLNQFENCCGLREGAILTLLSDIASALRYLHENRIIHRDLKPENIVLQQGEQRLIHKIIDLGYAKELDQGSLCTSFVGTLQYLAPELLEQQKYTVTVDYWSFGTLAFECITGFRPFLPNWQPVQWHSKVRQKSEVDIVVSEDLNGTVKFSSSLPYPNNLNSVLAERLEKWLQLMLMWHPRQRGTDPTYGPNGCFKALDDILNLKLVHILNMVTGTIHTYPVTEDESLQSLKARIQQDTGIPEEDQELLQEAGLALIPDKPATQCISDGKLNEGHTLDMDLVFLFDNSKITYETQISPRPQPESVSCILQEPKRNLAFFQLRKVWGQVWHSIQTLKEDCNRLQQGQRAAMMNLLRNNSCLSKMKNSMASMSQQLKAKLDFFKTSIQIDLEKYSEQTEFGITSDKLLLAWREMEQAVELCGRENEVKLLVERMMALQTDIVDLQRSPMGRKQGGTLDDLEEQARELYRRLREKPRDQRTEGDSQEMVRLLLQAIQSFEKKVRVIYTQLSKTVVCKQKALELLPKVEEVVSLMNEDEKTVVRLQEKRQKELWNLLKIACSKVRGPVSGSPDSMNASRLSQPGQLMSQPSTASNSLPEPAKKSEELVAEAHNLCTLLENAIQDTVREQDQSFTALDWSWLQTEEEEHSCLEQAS
Put plainly: K-LISA IKKβ Inhibitor Screening Kit in vitro assay. The class given is biochemical. The note with it: 0.1 to 100 μM, incubated with ATP. The protocol: In an attempt to determine whether compound I interferes with ATP binding to the catalytic site, the activity of compound I was measured with fully activated, phosphorylated IKKα or IKKβ. […] However, whether this compound interacts outside of the ATP binding pocket of IKK as an ATP non-competitive inhibitor similar to BMS-345541 is unknown. […] Luciferase activities with TPA induction alone were set at 100% and the relative activities with TPA in the presence of compounds are shown.

The next test concerns VEGF promoter. In words: VEGF promoter luciferase reporter assay in HEK293 cells. The class given is cell-based, human. The note with it: TPA 10 ng/ml 18 hours. The protocol: All expression plasmids were transiently transfected into HEK293 cells in a 96-well plate (0.1 μg/well) by using Effectene transfection reagent (Qiagen, Valencia, Calif.) according to the manufacturer's manual. HEK293 cells were maintained in Dulbecco's modified Eagle medium (Sigma, St. Louis, Mo.) supplemented with 10% fetal bovine serum (Atlanta Biologicals, Lawrenceville, Ga.) and incubated at 37° C. in a 5% CO2 incubator. After 24 hrs incubation, the medium was changed to DMEM with 0.2% FBS, and the transfectants were exposed to various concentrations of compound I and TPA (10 ng/ml). Cells were lysed with passive lysis buffer and the luciferase assay was performed using the Firefly-Luciferase reporter assay system (Promega, Madison, Wis.) and MLX Luminometer (Dynex Technology, Chantilly, Va.).
Three different luciferase reporter genes, AP-1 reporter containing four times TRE consensus originated from GCN4 and SRE reporter purchased from Stratagene (La Jolla, Calif.) respectively are as described previously (Suzukawa et al., Environ. Health Perspect., 2002, 110, 865-70). […]
Inhibition of NFκB transactivation would be expected to result in suppressed expression of genes whose transcription depends on NFκB. Quantitative RT-PCR was used to measure endogenous levels of IL-6 mRNA, transcribed from a gene whose transcription depends on NFκB but not AP-1. […]

The subject of test [1] is NCI-60 panel of human cancer cell lines. Put plainly: NCI-60 cancer screen, growth inhibition. Type of test: cell-based. From the text: Thus in addition to inhibiting tumorigenesis (transformation) and tumor progression (invasion), compound I may have potential for tumor growth inhibition in some cancer sites.

One may read the inhibition as the drop in the measured response relative to a control, in per cent. `Cc1cc(N)ccc1N=Nc1ccc(S(=O)(=O)CCOS(=O)(=O)O)cc1` [compound I, 2-(4-((4-amino-2-methylphenyl)diazenyl)phenylsulfonyl)ethyl hydrogen sulfate]: at IKKβ, the “Inhibition of phosphorylation of IκBα peptide substrate catalyzed by IKKβ” value is recorded as “no inhibition”. Further, the “Luciferase activity driven by VEGF promoter” value in the test with VEGF promoter is reported as “did not significantly affect”. Further, the inhibition at 1 µM in test [1] (Homo sapiens, compound at 1 μM, read-out: Growth inhibition of leukemia lines) is greater than 50%. In addition, the “Killing of leukemia lines” value in test [1] (concentrations up to 100 μM) is recorded as “does not kill”. The “Sensitivity of leukemia and breast cancer cell lines versus lines from other cancer sites” value in test [1] (growth inhibition) is “more sensitive”. Besides, in test [1] (most of the NCI-60 human cancer cell lines), the “Concentration at which most of the NCI-60 lines showed growth inhibition” value is on record as “greater than 10 μM”.
